Laboratory results taken from patent US4122034A, “Antimicrobial compositions” (Schering Corporation, priority 1975, dated 1978).
In brackets after ≈: the same amount, converted by molar mass.

Experiments:
[1] = system: Pseudomonas acruginosa; test: In vitro antibacterial activity, dilution in Mueller Hinton Agar (Table I); format: cell-based
Experimental: (§1) All the tests were carried out and (when necessary) scored under standard conditions. "MIC" means "minimum inhibitory concentration."
(§2) In vitro Antibacterial Activity of 2-aminoalkyl-3-phenyl-
(§3) indoles of the formula I. Dilution in Mueller Hinton Agar pH 7.4

[2] = system: Salmonella; test: as above; format: cell-based
Experimental: as §1, §2, §3

[3] = system: Proteus vulgaris; test: as above; format: cell-based; conditions: strain Napol, Mueller Hinton Agar pH 7.4
Experimental: as §1, §2, §3

[4] = system: Streptococcus pyogenes; test: as above; format: cell-based
Experimental: as §1, §2, §3

[5] = system: Klebsiella; test: as above; format: cell-based
Experimental: as §1, §2, §3

[6] = system: Escherichia coli; test: as above; format: cell-based
Experimental: as §1, §2, §3

[7] = system: Proteus rettgeri; test: as above; format: cell-based; conditions: Providencia rettgeri; 'Proteus rettgeri mirabilis' [sic]; Mueller Hinton Agar pH 7.4
Experimental: as §1, §2, §3

[8] = system: Proteus mirabilis; test: as above; format: cell-based; conditions: Mueller Hinton Agar pH 7.4
Experimental: as §1, §2, §3

[9] = system: Enterococcus; test: as above; format: cell-based
Experimental: as §1, §2, §3

[10] = system: Staphylococcus aureus; test: as above; format: cell-based; conditions: Mueller Hinton Agar pH 7.4
Experimental: as §1, §2, §3

[11] = system: Proteus morganii; test: as above; format: cell-based; conditions: Morganella morganii; strain Valz; Mueller Hinton Agar pH 7.4
Experimental: as §1, §2, §3

[12] = system: Trichophyton megninii; test: In vitro antifungal activity, dilutions in Sabouraud's Dextrose Broth (Table IV); format: cell-based; conditions: Trichophyton rubrum; after 96 hours
Experimental: as §1
(§4) In vitro Antifungal Activity of 2-amioalkyl-3-phenylindoles
(§5) of the formula I against Dermetophytes and Aspergillus.
(§6) Dilutions in Sabouraud's Dextrose Broth.

[13] = system: Aspergillus niger 6275; test: as above; format: cell-based; conditions: after 96 hours
Experimental: as §1, §4, §5, §6

[14] = system: Trichophyton ascoides; test: as above; format: cell-based; conditions: after 96 hours
Experimental: as §1, §4, §5, §6

[15] = system: Trichophyton soudenense; test: as above; format: cell-based; conditions: after 96 hours
Experimental: as §1, §4, §5, §6

[16] = system: Trichophyton discoides; test: as above; format: cell-based; conditions: after 96 hours
Experimental: as §1, §4, §5, §6

[17] = system: Microsporum distortum; test: as above; format: cell-based; conditions: after 96 hours
Experimental: as §1, §4, §5, §6

[18] = system: Tricoderm sp.; test: as above; format: cell-based; conditions: after 96 hours
Experimental: as §1, §4, §5, §6

[19] = system: Trichophyton rubrum; test: as above; format: cell-based; conditions: 96 h
Experimental: as §1, §4, §5, §6

[20] = system: Epidermophyton floccosum; test: as above; format: cell-based; conditions: after 96 hours
Experimental: as §1, §4, §5, §6

[21] = system: Microsporum nanum; test: as above; format: cell-based; conditions: Nannizzia nana; after 96 hours
Experimental: as §1, §4, §5, §6

[22] = system: Trychomonas vaginalis; test: In vitro Anti-Trichomonal activity (Table VII); format: cell-based
Experimental: as §1
In vitro Anti-Trichomonal Activity of some 2-aminoalkyl-3-
phenyl-indenes of formula II.

[23] = system: Candida albicans; test: In vitro Anti-Candida activity, dilutions in Sabouraud's Dextrose Agar (Table III); format: cell-based; conditions: 48 h
Experimental: as §1
In vitro Anti-Candida Activity of 2-aminoalkyl-3-phenyl-
indoles of the formula I. Dilutions in Sabouraud's Dextrose
MIC (mcg/ml) after 48 hours

[24] = system: T. mentagrophytes; test: Effect against topical T. mentagrophytes infections in guinea pigs (Table VI); format: in vivo; parameters: Average Sum of lesion scores, Days 1-5 / Average Sum of lesion scores, Days 1-10: scale not given here; conditions: for Average Sum of lesion scores, Days 1-5: untreated controls 14.8; for Average Sum of lesion scores, Days 1-10: untreated controls 38.2
Experimental: as §1
Effect of some 2-aminoalkyl-3-phenylindoles of the formula II
against topical T. mentagrophytes infections in guinea pigs.

Question: Which results are given for `NCc1[nH]c2ccc(Cl)cc2c1-c1ccccc1F` [A, 2-Aminomethyl-5-chloro-3-(2-fluorophenyl)indole]?
Answer: MIC ([1]; pH 7.4, strain 130, Mueller Hinton Agar pH 7.4): 17.5 µg/mL (≈ 63.7 µM); MIC ([1]; pH 7.4, strain 138, Mueller Hinton Agar pH 7.4): 17.5 µg/mL (≈ 63.7 µM); MIC ([1]; pH 7.4, strain 762, Mueller Hinton Agar pH 7.4): 17.5 µg/mL (≈ 63.7 µM); MIC ([1]; pH 7.4, strain 8709, Mueller Hinton Agar pH 7.4): 17.5 µg/mL (≈ 63.7 µM); MIC ([1]; pH 7.4, strain Trav. 1, Mueller Hinton Agar pH 7.4): 17.5 µg/mL (≈ 63.7 µM); MIC ([2]; TYPHI, pH 7.4, B typhi, Mueller Hinton Agar pH 7.4): 7.5 µg/mL (≈ 27.3 µM); MIC ([2]; pH 7.4, C1 Oao, Mueller Hinton Agar pH 7.4): 7.5 µg/mL (≈ 27.3 µM); MIC ([2]; pH 7.4, C2 Cuban, Mueller Hinton Agar pH 7.4): 7.5 µg/mL (≈ 27.3 µM); MIC ([2]; pH 7.4, C2 Napc, Mueller Hinton Agar pH 7.4): 3 µg/mL (≈ 10.9 µM); MIC ([2]; pH 7.4, Salmonella ent. 1, Mueller Hinton Agar pH 7.4): 7.5 µg/mL (≈ 27.3 µM); MIC [3]: 17.5 µg/mL (≈ 63.7 µM); MIC ([4]; pH 7.4, strain 27, Mueller Hinton Agar pH 7.4): 7.5 µg/mL (≈ 27.3 µM); MIC ([4]; pH 7.4, strain C, Mueller Hinton Agar pH 7.4): 7.5 µg/mL (≈ 27.3 µM); MIC ([4]; pH 7.4, strain Cruz, Mueller Hinton Agar pH 7.4): 3 µg/mL (≈ 10.9 µM); MIC ([5]; pH 7.4, strain 121, Mueller Hinton Agar pH 7.4): 7.5 µg/mL (≈ 27.3 µM); MIC ([5]; pH 7.4, strain 3020, Mueller Hinton Agar pH 7.4): 7.5 µg/mL (≈ 27.3 µM); MIC ([5]; pH 7.4, strain AD17, Mueller Hinton Agar pH 7.4): 7.5 µg/mL (≈ 27.3 µM); MIC ([5]; pH 7.4, strain AD22, Mueller Hinton Agar pH 7.4): 7.5 µg/mL (≈ 27.3 µM); MIC ([5]; pH 7.4, strain G3694, Mueller Hinton Agar pH 7.4): 7.5 µg/mL (≈ 27.3 µM); MIC ([6]; pH 7.4, strain 777, Mueller Hinton Agar pH 7.4): 3 µg/mL (≈ 10.9 µM); MIC ([6]; pH 7.4, strain 1574-1, Mueller Hinton Agar pH 7.4): 7.5 µg/mL (≈ 27.3 µM); MIC ([6]; pH 7.4, strain 4195, Mueller Hinton Agar pH 7.4): 3 µg/mL (≈ 10.9 µM); MIC ([6]; pH 7.4, strain 10536, Mueller Hinton Agar pH 7.4): 7.5 µg/mL (≈ 27.3 µM); MIC ([6]; pH 7.4, strain JR66, Mueller Hinton Agar pH 7.4): 3 µg/mL (≈ 10.9 µM); MIC [7]: 17.5 µg/mL (≈ 63.7 µM); MIC ([8]; pH 7.4, strain Hard): 17.5 µg/mL (≈ 63.7 µM); MIC ([8]; pH 7.4, strain Peras): 7.5 µg/mL (≈ 27.3 µM); MIC ([9]; pH 7.4, strain 373, Mueller Hinton Agar pH 7.4): 7.5 µg/mL (≈ 27.3 µM); MIC ([9]; pH 7.4, strain 0928/72, Mueller Hinton Agar pH 7.4): 7.5 µg/mL (≈ 27.3 µM); MIC ([10]; 209P, pH 7.4, strain 209P): 7.5 µg/mL (≈ 27.3 µM); MIC ([10]; pH 7.4, strain 59N): 3 µg/mL (≈ 10.9 µM); MIC ([10]; pH 7.4, strain Gray): 7.5 µg/mL (≈ 27.3 µM); MIC ([10]; pH 7.4, strain Wood): 3 µg/mL (≈ 10.9 µM); MIC ([10]; pH 7.4, strain Zeigler): 3 µg/mL (≈ 10.9 µM); MIC [11]: 17.5 µg/mL (≈ 63.7 µM); MIC [12]: 3 µg/mL (≈ 10.9 µM); MIC [13]: 17.5 µg/mL (≈ 63.7 µM); MIC [14]: 17.5 µg/mL (≈ 63.7 µM); MIC [15]: 17.5 µg/mL (≈ 63.7 µM); MIC [16]: 7.5 µg/mL (≈ 27.3 µM); MIC [17]: 3 µg/mL (≈ 10.9 µM); MIC [18]: 7.5 µg/mL (≈ 27.3 µM); MIC ([19]; strain 3, after 96 hours): 7.5 µg/mL (≈ 27.3 µM); MIC ([19]; strain 360, after 96 hours): 7.5 µg/mL (≈ 27.3 µM); MIC ([19]; strain Blehl, after 96 hours): 7.5 µg/mL (≈ 27.3 µM); MIC ([19]; strain Haggerty, after 96 hours): 7.5 µg/mL (≈ 27.3 µM); MIC [20]: 3 µg/mL (≈ 10.9 µM); MIC [21]: 3 µg/mL (≈ 10.9 µM); IC50 ([22]; 50% suppression, read-out: Minimal Level to Produce 50% Suppression): 24 µg/mL (≈ 87.4 µM); IC90 ([22]; 90% suppression, read-out: Minimal Level to Produce 90% Suppression): 40 µg/mL (≈ 146 µM); MIC ([23]; strain 1, after 48 hours): 75 µg/mL (≈ 273 µM); MIC ([23]; strain 2, after 48 hours): 75 µg/mL (≈ 273 µM); MIC ([23]; strain 3, after 48 hours): 75 µg/mL (≈ 273 µM); MIC ([23]; strain 4, after 48 hours): 75 µg/mL (≈ 273 µM); MIC ([23]; strain 5, after 48 hours): 75 µg/mL (≈ 273 µM); MIC ([23]; strain 6, after 48 hours): 75 µg/mL (≈ 273 µM); MIC ([23]; strain 8, after 48 hours): 75 µg/mL (≈ 273 µM); MIC ([23]; strain 9, after 48 hours): 75 µg/mL (≈ 273 µM); MIC ([23]; strain 29, after 48 hours): 75 µg/mL (≈ 273 µM); MIC ([23]; strain Atkisson, after 48 hours): 75 µg/mL (≈ 273 µM); MIC ([23]; strain Bertrand, after 48 hours): 75 µg/mL (≈ 273 µM); MIC ([23]; strain Bevan, after 48 hours): 75 µg/mL (≈ 273 µM); MIC ([23]; strain Blunden, after 48 hours): 75 µg/mL (≈ 273 µM); MIC ([23]; strain Bognay, after 48 hours): 75 µg/mL (≈ 273 µM); MIC ([23]; strain Boyer, after 48 hours): 75 µg/mL (≈ 273 µM); MIC ([23]; strain Burke, after 48 hours): 75 µg/mL (≈ 273 µM); MIC ([23]; strain Burnside, after 48 hours): 75 µg/mL (≈ 273 µM); MIC ([23]; strain Collins, after 48 hours): 75 µg/mL (≈ 273 µM); MIC ([23]; strain Fix, after 48 hours): 75 µg/mL (≈ 273 µM); MIC ([23]; strain Frazier, after 48 hours): 75 µg/mL (≈ 273 µM); MIC ([23]; strain Fulcher, after 48 hours): 75 µg/mL (≈ 273 µM); MIC ([23]; strain Gay, after 48 hours): 75 µg/mL (≈ 273 µM); MIC ([23]; strain Hons, after 48 hours): 75 µg/mL (≈ 273 µM); MIC ([23]; strain Johnson, after 48 hours): 75 µg/mL (≈ 273 µM); MIC ([23]; strain Kenndy 2, after 48 hours): 75 µg/mL (≈ 273 µM); MIC ([23]; strain Kennedy 1, after 48 hours): 37.5 µg/mL (≈ 136 µM); MIC ([23]; strain Lehtman, after 48 hours): 75 µg/mL (≈ 273 µM); MIC ([23]; strain Lusk, after 48 hours): 75 µg/mL (≈ 273 µM); MIC ([23]; strain Merkel, after 48 hours): 75 µg/mL (≈ 273 µM); MIC ([23]; strain Newcomb, after 48 hours): 37.5 µg/mL (≈ 136 µM); MIC ([23]; strain Sherod, after 48 hours): 75 µg/mL (≈ 273 µM); MIC ([23]; strain Shurelli, after 48 hours): 75 µg/mL (≈ 273 µM); MIC ([23]; strain Sparks, after 48 hours): 75 µg/mL (≈ 273 µM); MIC ([23]; strain Tyner, after 48 hours): 75 µg/mL (≈ 273 µM); Average No. of Days to become negative, Cultures ([24]; concentration 1%): 6.8 days; Average No. of Days to become negative, Lesion ([24]; concentration 1%): 9.0 days; Average Sum of lesion scores, Days 1-5 ([24]; concentration 1%): 11.8; Average Sum of lesion scores, Days 1-10 ([24]; concentration 1%): 16.0; Average No. of Days to become negative, Cultures ([24]; concentration 4%): 6.0 days; Average No. of Days to become negative, Lesion ([24]; concentration 4%): 8.8 days; Average Sum of lesion scores, Days 1-5 ([24]; concentration 4%): 11.2; Average Sum of lesion scores, Days 1-10 ([24]; concentration 4%): 14.8
